Laboratory results as given in patent US20240382497A1, “PROPHYLACTIC OR THERAPEUTIC AGENT FOR HYPOXIC INJURY, ISCHAEMIA-REPERFUSION INJURY AND INFLAMMATION, CELL PROTECTION AGENT FOR TRANSPLANTATION, AND BIO-PRESERVATION AGENT” (priority 2018, published 2024).

How the values were obtained:
mice = assay: Oxygen consumption after intraperitoneal injection; format: in vivo, mouse; conditions: versus saline
Description: (§1) An influence of a thiazoline-related compound on the oxygen consumption was analyzed. The oxygen consumption was analyzed using an energy metabolism measurement device for small animals (ARCO-2000; ARCO SYSTEM). About 3-month-old C57/BL6N male mice were each placed in a measuring chamber and, after acclimation for about 2 hr, a thiazoline-related compound (2MT) was presented. The odors were presented by placing filter papers scented with 100 μl (104 mmol) of odor molecules in the measuring chamber. As a control, an experiment in which a filter paper dropped with saline was presented to the mice was also performed. The oxygen consumption was measured every one min. Mean oxygen consumption was calculated as the mean of 10 min before presenting odor and 20 min after presenting odor.
Changes in the oxygen consumption induced by intraperitoneal injection of heterocyclic compounds (2MT and Thiomorpholine (TMO) were measured by a method similar to that in Example 8.

Interleukin-1β (IL-1β) = assay: Blood IL-1β in LPS sepsis model (ELISA); format: in vivo, mouse; conditions: about 80 mg/kg i.p., 1 hr and 4 hr, versus saline
Description: (§2) Lipopolysaccharide (LPS) (0.6 mg/kg) was intraperitoneally administered to male Balb/c mice (about 2-3 months old) to generate a sepsis model. Immediately after the LPS administration, 200 μl (about 80 mg/kg) of a solution prepared by diluting various heterocyclic compounds and isothiocyanate compounds 100 times with saline was intraperitoneally administered. Blood samples were collected 60 min after LPS and compound administration, EDTA plasma was prepared, and the blood level of inflammatory cytokine TNF-a was measured by the ELISA method.
(§3) A sepsis model mouse was prepared by the same method as in Example 18. Immediately after the LPS administration, 200 μl (about 80 mg/kg) of a thiazoline-related compound (2MT) solution prepared by diluting 100 times with saline was intraperitoneally administered. Blood samples were collected 1 hr and 4 hr after administration of LPS and thiazoline-related compound (2MT), EDTA plasma was prepared, and the blood levels of inflammatory cytokine Interleukin-1β (IL-1β), and anti-inflammatory cytokine Interleukin-10 (IL-10) were measured by the ELISA method.

C57/BL6N male mice [1] = assay: Survival time in 4% oxygen after odor presentation; format: in vivo, mouse; conditions: odor 100 μl (104 mmol) presented 50 min before; measured up to 30 min; no odor controls all died within 20 min
Description: (§4) About 3-month-old C57/BL6N male mice were each placed in a highly sealed breeding cage, and a filter paper scented with 100 μl (104 mmol) of the thiazoline-related compound (2MT) was placed in the breeding cage, and the odor was presented for 50 min. After the odor was presented, the mice were placed in a tight box in which the oxygen concentration was adjusted to 4%, and the survival time of the mice was measured up to 30 min at maximum. As a control, the survival time of mice presented with a filter paper dropped with water was also measured (no odor). Furthermore, changes in the core body temperature when the odor was presented under the same conditions as in this Example were measured by the same experimental method as in Example 4.

C57/BL6N male mice [2] = assay: Core body temperature under the odor conditions of Example 9; format: in vivo, mouse; conditions: odor presentation conditions of Example 9
Description: (§5) An influence of a thiazoline-related compound and an odor molecule that induces learned fear on the core body temperature was analyzed. A radio-telemetry device for monitoring biological parameters (manufactured by Physiotel) was surgically implanted in the abdomen of male C57/BL6N mice (about 3 months old). The mice were subjected to the following experiment after about 10 days of recovery period. […] The information of body temperature was recorded every 10 sec using Dataquest A.R.T. software (DataScience international). The value of the core body temperature change was calculated as the difference between the mean core body temperature for 10 min when water was presented and the mean core body temperature for 20 min when each odor molecule was presented, and the change in the core body temperature without odor was set to 0. […]
as §4, with “Furthermore, changes in the core body temperature when the odor was presented under the same conditions as in this Example were measured by the same experimental method as in Example 4.” left out

[3] = tested on: Trpa1 knockout mice and littermate hetero mice; assay: Oxygen consumption on odor presentation, Trpa1 knockout and hetero mice; format: in vivo, mouse; conditions: two filter papers scented with 271 μmol
Description: as §1
The oxygen consumption was measured using an energy metabolism measurement device for small animals as in Example 8.About 3-month to 6-month-old Trpa1 knockout mice and littermate hetero mice were each placed in a measuring chamber of the energy metabolism measurement device for small animals and, after acclimation for about 2 hr, a thiazoline-related compound (2MT) was presented. The odor was presented by placing two filter papers scented with 271 μmol of thiazoline-related compound (2MT) in the measuring chamber.

C57/BL6N male mice [4] = assay: Core body temperature under the odor conditions of Example 14; format: in vivo, mouse; conditions: odor presentation conditions of Example 14
Description: as §5
Skin ischemia-reperfusion injury model mouse was generated as follows according to the method of Uchiyama et al. (Uchiyama et al., Sci Rep 5:9072, 2015). […] The condition of the skin on the back, which was pinched between magnets, was recorded by taking photographs every day. Based on the obtained images, the wound area was quantified with image analysis software (Photoshop, Adobe). Furthermore, changes in the core body temperature when the odor was presented under the same conditions as in this Example were measured by the same experimental method as in Example 2.

[5] = tested on: Skin ischemia-reperfusion injury model mouse; assay: Skin ischemia-reperfusion injury (pressure ulcer) model, wound area; format: in vivo; conditions: odor 100 μl (104 mmol) 30 min before and during 12 hr of pinching the skin between magnets, versus no odor
Description: Skin ischemia-reperfusion injury model mouse was generated as follows according to the method of Uchiyama et al. (Uchiyama et al., Sci Rep 5:9072, 2015). The back hair of C57/BL6N male mice (about 3-month-old) was shaved in the same manner as in Example 1, 2-3 days before the test. On the day of the test, the mice were each placed in a highly sealed cage, and a filter paper scented with 100 μl (104 mmol) of the thiazoline-related compound (2MT) was placed in the breeding cage, and the odor was presented for 30 min. As a control, a filter paper dropped with water was presented for 30 min (no odor). After 30 min, the mouse was taken out from the cage, the dorsal skin was pinched between two circular magnets and the mouse was returned to the highly sealed cage. Furthermore, a filter paper scented with 100 μl (104 mmol) of 2 MT or water was placed in the highly sealed cage, and the mouse was left for 12 hr. […] The condition of the skin on the back, which was pinched between magnets, was recorded by taking photographs every day. Based on the obtained images, the wound area was quantified with image analysis software (Photoshop, Adobe). Furthermore, changes in the core body temperature when the odor was presented under the same conditions as in this Example were measured by the same experimental method as in Example 2.

Interleukin-10 (IL-10) = assay: Blood IL-10 in LPS sepsis model (ELISA); format: in vivo, mouse; conditions: about 80 mg/kg i.p., 1 hr and 4 hr, versus saline
Description: as §2, §3

CC1=NCCS1 [2MT, 2-methyl-2-thiazoline]
oxygen consumption (mice): suppress the oxygen consumption
blood concentration of IL-1β (Interleukin-1β (IL-1β)): decreased the blood concentration of inflammatory cytokine IL-1β
survival time in 4% oxygen (C57/BL6N male mice [1]): many individuals survived even after 30 min
core body temperature (C57/BL6N male mice [2]): remarkable decrease in the core body temperature
oxygen consumption per body weight ([3]; Trpa1 knockout mice (Trpa1−/−)): the oxygen consumption did not decrease
oxygen consumption per body weight ([3]; control mice (Trpa1+/−)): the oxygen consumption was decreased
core body temperature (C57/BL6N male mice [4]): remarkable decrease in the core body temperature
formation of pressure ulcer (wound area) [5]: formation of pressure ulcer significantly decreased
blood concentration of IL-10 (Interleukin-10 (IL-10)): increased the blood concentration of anti-inflammatory cytokine IL-10
